According to ChEMBL document CHEMBL5303766, “Data for DCP probe FHT-2344” (2022):

What was measured:
[1] = biological target: 5-hydroxytryptamine receptor 1B (Homo sapiens) (UniProt P28222); conditions: Compound concentration 10.0 uM
[2] = biological target: T1, Serine/threonine-protein kinase DCLK1 (Homo sapiens) (UniProt O15075); assay: DCAMKL1 SGC Tm panel (DSF); conditions: for ΔTm: Compound concentration 10.0 uM
T1 sequence (whole entry): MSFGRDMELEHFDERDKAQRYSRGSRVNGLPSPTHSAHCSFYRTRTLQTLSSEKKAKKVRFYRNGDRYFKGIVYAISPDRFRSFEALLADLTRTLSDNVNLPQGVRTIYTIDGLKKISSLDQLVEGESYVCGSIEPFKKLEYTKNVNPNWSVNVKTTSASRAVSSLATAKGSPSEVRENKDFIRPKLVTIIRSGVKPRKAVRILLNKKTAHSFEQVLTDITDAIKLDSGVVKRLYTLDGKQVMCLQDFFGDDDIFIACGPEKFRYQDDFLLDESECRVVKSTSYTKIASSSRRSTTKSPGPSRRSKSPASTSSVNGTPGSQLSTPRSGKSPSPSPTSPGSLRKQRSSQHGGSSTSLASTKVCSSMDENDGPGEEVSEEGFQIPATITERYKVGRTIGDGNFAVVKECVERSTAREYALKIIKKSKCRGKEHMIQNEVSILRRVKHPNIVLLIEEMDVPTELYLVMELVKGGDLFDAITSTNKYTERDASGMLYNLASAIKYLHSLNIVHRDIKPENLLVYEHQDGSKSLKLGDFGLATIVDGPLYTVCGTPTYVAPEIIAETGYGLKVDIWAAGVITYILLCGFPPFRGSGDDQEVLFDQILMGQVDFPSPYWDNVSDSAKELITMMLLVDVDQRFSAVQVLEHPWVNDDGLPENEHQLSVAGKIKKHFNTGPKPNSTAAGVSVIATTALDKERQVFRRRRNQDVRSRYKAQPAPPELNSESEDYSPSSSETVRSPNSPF

[3] = biological target: Histamine H1 receptor (Homo sapiens) (UniProt P35367); conditions: Compound concentration 10.0 uM
[4] = biological target: T2, Bone morphogenetic protein receptor type-2 (Homo sapiens) (UniProt Q13873); assay: BMPR2 SGC Tm panel (DSF); conditions: for ΔTm: Compound concentration 10.0 uM
T2 sequence (whole entry): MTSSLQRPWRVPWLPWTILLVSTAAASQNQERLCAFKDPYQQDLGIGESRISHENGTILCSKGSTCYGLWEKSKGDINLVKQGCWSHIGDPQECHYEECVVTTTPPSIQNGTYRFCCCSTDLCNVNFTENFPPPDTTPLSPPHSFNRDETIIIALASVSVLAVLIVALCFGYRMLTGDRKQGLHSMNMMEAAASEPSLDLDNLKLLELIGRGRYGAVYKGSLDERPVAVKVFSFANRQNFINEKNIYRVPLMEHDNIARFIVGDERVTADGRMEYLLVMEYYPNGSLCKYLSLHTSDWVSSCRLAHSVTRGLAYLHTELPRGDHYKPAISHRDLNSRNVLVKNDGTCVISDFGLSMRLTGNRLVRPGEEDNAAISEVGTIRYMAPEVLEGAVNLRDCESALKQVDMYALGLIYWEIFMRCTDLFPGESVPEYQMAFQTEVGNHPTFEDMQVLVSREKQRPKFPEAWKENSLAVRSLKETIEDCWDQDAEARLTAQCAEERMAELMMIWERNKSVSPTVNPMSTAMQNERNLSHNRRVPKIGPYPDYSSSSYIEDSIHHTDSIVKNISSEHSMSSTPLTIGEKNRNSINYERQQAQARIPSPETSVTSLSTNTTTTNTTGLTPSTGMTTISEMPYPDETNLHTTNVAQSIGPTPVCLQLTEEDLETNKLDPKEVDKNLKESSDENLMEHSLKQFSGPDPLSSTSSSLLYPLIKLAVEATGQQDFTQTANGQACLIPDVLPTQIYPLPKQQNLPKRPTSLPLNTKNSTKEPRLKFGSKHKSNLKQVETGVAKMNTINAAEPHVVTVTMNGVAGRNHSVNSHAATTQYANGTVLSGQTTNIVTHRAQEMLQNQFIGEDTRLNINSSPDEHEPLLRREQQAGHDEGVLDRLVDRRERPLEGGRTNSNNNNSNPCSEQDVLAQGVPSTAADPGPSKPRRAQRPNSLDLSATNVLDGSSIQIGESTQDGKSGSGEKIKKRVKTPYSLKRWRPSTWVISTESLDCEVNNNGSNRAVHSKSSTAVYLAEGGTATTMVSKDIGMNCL

[5] = biological target: Alpha-2B adrenergic receptor (Homo sapiens) (UniProt P18089); conditions: Compound concentration 10.0 uM
[6] = biological target: Alpha-2A adrenergic receptor (Homo sapiens) (UniProt P08913); conditions: Compound concentration 10.0 uM
[7] = biological target: T3, Serine/threonine-protein kinase haspin (Homo sapiens) (UniProt Q8TF76); assay: GSG2 SGC Tm panel (DSF); conditions: for ΔTm: Compound concentration 10.0 uM
T3 sequence (whole entry): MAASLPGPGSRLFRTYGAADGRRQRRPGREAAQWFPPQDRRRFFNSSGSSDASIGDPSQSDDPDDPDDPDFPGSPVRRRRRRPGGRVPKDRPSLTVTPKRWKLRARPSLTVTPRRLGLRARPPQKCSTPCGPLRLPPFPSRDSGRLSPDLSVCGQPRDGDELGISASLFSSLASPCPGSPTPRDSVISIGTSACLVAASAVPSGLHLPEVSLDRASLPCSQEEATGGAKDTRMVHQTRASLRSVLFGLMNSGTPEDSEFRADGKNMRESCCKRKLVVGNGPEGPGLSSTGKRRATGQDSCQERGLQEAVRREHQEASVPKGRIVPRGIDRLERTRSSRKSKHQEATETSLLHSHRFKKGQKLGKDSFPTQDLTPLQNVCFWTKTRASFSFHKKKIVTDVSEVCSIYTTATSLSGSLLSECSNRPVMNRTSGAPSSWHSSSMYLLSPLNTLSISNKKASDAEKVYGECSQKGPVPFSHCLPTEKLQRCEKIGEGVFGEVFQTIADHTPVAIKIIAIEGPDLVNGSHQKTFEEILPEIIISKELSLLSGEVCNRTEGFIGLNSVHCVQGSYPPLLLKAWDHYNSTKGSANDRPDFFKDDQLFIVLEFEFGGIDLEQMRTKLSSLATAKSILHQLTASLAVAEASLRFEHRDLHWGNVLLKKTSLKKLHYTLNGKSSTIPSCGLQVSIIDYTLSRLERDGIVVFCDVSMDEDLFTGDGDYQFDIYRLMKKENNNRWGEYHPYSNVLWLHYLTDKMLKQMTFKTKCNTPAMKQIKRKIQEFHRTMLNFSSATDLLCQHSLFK

[8] = biological target: Serine/threonine-protein kinase B-raf (Homo sapiens) (UniProt P15056); assay: BRAF SGC Tm panel (DSF); conditions: for ΔTm: Compound concentration 10.0 uM
[9] = biological target: AP2-associated protein kinase 1 (Homo sapiens) (UniProt Q2M2I8); assay: AAK1 SGC Tm panel (DSF); conditions: for ΔTm: Compound concentration 10.0 uM
Chain of AP2-associated protein kinase 1 (Homo sapiens) (Q2M2I8 whole entry, looked up): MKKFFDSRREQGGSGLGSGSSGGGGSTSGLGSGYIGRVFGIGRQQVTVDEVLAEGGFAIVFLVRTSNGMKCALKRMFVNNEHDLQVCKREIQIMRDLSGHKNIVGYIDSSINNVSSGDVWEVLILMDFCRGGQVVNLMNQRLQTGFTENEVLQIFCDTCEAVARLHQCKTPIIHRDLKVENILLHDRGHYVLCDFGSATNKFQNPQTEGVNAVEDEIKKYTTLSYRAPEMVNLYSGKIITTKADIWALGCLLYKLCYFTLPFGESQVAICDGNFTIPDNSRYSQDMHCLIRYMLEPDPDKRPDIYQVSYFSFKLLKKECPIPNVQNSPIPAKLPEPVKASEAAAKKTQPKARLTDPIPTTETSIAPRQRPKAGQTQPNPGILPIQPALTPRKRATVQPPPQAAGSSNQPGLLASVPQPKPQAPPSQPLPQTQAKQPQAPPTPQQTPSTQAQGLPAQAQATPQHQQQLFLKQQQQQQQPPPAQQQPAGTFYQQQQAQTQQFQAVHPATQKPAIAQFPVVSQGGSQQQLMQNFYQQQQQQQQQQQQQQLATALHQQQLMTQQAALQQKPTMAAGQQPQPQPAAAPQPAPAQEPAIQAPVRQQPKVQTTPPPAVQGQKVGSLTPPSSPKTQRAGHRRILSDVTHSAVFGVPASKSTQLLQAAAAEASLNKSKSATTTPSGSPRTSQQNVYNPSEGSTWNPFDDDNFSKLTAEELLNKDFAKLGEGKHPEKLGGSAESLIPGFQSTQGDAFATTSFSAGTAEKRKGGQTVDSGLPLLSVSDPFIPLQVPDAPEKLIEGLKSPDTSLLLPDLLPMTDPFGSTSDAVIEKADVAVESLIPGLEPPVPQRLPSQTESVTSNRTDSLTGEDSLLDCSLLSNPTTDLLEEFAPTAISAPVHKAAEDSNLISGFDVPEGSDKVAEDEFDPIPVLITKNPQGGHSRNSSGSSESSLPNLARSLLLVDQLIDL

Chain of Serine/threonine-protein kinase B-raf (Homo sapiens) (P15056 whole entry): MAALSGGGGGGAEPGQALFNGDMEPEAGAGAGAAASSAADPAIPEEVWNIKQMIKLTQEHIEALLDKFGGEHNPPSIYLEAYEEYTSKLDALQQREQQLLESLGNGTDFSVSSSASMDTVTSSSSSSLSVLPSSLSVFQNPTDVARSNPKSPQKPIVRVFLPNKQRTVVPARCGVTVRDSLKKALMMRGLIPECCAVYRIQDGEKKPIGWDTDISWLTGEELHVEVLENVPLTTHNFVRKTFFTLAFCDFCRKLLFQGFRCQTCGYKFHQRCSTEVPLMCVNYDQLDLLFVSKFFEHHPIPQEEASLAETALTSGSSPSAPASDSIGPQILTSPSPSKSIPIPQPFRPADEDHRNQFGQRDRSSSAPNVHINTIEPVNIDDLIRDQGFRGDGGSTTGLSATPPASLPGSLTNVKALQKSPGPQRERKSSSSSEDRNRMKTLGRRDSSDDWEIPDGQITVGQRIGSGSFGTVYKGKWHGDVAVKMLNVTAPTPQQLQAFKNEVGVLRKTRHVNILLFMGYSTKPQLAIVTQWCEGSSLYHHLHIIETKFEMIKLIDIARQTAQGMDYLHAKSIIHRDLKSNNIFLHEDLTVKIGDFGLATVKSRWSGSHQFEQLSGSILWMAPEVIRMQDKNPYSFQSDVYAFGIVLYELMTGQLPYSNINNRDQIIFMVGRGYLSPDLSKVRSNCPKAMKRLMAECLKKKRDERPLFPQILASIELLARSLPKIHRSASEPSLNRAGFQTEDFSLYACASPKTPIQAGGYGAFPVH
Chain of 5-hydroxytryptamine receptor 1B (Homo sapiens) (P28222 whole entry): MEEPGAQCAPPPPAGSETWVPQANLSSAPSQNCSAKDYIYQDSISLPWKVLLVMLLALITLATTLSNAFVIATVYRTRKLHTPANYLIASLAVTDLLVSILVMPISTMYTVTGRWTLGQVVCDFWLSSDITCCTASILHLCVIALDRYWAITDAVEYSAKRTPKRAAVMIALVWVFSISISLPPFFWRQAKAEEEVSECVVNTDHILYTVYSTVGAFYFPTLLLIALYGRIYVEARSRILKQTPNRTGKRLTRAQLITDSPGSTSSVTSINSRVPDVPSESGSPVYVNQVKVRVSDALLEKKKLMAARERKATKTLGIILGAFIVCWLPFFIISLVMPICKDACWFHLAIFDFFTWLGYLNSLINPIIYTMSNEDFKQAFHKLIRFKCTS
Chain of Alpha-2B adrenergic receptor (Homo sapiens) (P18089 whole entry): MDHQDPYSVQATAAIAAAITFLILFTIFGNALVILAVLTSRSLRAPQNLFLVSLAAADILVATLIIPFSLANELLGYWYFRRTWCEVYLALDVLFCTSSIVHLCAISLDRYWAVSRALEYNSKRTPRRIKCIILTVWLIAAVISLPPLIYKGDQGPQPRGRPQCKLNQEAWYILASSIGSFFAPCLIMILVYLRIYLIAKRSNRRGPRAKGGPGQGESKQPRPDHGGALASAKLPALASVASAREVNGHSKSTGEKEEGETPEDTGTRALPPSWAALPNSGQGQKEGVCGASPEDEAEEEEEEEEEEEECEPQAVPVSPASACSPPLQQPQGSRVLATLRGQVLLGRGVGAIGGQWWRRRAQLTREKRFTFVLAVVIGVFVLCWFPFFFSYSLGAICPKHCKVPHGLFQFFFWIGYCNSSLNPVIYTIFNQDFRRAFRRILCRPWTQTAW
Chain of Histamine H1 receptor (Homo sapiens) (P35367 whole entry): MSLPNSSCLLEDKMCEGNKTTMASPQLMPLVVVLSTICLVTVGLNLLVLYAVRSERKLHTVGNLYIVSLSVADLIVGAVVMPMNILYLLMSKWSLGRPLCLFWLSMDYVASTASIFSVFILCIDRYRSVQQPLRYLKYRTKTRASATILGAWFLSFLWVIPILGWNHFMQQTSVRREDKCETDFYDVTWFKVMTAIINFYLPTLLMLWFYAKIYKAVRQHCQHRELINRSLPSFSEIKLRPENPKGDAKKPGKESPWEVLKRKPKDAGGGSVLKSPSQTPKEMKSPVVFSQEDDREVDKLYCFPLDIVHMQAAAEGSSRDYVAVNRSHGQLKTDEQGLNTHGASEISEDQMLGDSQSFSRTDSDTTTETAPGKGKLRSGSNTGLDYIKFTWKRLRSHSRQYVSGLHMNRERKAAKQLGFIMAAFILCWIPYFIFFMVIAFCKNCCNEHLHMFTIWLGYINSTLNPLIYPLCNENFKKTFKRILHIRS
Chain of Alpha-2A adrenergic receptor (Homo sapiens) (P08913 whole entry): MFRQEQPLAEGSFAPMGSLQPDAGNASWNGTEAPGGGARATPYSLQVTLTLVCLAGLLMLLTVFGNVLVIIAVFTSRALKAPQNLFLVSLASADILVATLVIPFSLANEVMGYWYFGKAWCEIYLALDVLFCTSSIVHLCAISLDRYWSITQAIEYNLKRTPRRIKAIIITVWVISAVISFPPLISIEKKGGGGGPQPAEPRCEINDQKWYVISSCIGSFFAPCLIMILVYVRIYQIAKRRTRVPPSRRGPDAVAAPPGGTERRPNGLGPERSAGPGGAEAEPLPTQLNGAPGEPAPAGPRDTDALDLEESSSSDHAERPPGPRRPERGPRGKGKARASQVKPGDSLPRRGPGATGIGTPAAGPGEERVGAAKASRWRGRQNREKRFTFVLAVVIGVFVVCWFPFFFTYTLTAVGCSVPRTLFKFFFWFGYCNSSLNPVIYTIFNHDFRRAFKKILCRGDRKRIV

inhibition [1] [%]	delta Tm Staurosporine positive control [2]	ΔTm [2]	inhibition [3] [%]	delta Tm Staurosporine positive control [4]	ΔTm [4]	inhibition [5] [%]	inhibition [6] [%]	delta Tm Staurosporine positive control [7]	ΔTm [7]	delta Tm Staurosporine positive control [8]	ΔTm [8]	delta Tm Staurosporine positive control [9]	ΔTm [9]	Compound
17.6	14	0.237	1.95	2.89	0.371	6.88	5.84	7.11	-0.207	0.63	-0.0136	11.6	-0.00871	COC[C@H](NC(=O)c1ccn(S(C)(=O)=O)c1)C(=O)Nc1nc(-c2cccc(-c3ccn(C)n3)c2)cs1
27.4	14	-0.00623	12.5	2.89	0.38	14.6	10.5	7.11	-1.11	0.63	-0.0339	11.6	0.0243	C[C@H](NC(=O)c1cn(C2(C#N)CC2)cn1)C(=O)Nc1nc(-c2cccc(-c3ccn(C)n3)c2)cs1
